The source made the active and inactive calls.
Experiments:
INS1 = assay: INS-1E survival protection against cytokine death – cell-based, luminescence, retest, dose response (AID 449756); type: functional; details: Rattus norvegicus;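 further: cell death triggered by IL-1 beta plus TNF-alpha plus IFN-gamma mixture; protective hits raise ATP signal compared with cytokine alone wells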
[1] = NIH-3T3 fibroblast cytotoxicity, dose response, cytotoxicity control, cell-based, fluorescence, Alamar Blue, secondary assay (AID 2327); type: functional;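 further: NIH-3T3 mouse fibroblasts cultured with fluconazole at 8 µg/mL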
[2] = fluconazole-exposed Candida albicans growth modulators – fluorescence, retest, confirmation (AID 2467); type: functional, cell-based
[3] = alpha-synuclein stem-loop luciferase translation blockers – H4 neuroglioma cells, luminescence, confirmation (AID 1988); type: functional, cell-based
[4] = Luminescence Cell-Based Dose Retest to Confirm Inhibitors of Cancer Stem Cells. [Related pubchem assays (depositor defined):AID2717, AID2721]; type: functional; details: Homo sapiens
[5] = HGIII-sPLA2 enzyme inhibition potency – biochemical, QFRET, IC50, dose response (AID 743457);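 further: green fluorescence rise as the enzyme cleaves BODIPY PC-A2 in liposomes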
[6] = Counterscreen for AddAB inhibitors: absorbance-based bacterial cell-based high throughput dose response assay for inhibitors of bacterial viability. [Related pubchem assays (depositor defined):AID435030, AID449728, AID449731, AID488942, AID488955, AID488956]; type: functional
[7] = Luminescence Cell-Based Dose Response HTS to Identify Inhibitors of 5'UTR Stem-Loop Driven Prion Protein mRNA Translation in H4 Neuroglioblastoma Cells. [Related pubchem assays: 1827 (Project Summary), 1813 (Primary HTS)]; type: functional
Exodeoxyribonuclease V = target: T1, Exodeoxyribonuclease V (Escherichia coli (strain K12), UniProt P04993+P07648+P08394); assay: RecBCD inhibition via phage-restricted bacterial growth – absorbance, V66 E. coli, mutant T4 phage, counter-screen for AddAB inhibitor project, dose response (AID 492957); type: functional, cell-based, Escherichia coli str. K-12 substr. MG1655
T1 sequence (P04993 whole entry): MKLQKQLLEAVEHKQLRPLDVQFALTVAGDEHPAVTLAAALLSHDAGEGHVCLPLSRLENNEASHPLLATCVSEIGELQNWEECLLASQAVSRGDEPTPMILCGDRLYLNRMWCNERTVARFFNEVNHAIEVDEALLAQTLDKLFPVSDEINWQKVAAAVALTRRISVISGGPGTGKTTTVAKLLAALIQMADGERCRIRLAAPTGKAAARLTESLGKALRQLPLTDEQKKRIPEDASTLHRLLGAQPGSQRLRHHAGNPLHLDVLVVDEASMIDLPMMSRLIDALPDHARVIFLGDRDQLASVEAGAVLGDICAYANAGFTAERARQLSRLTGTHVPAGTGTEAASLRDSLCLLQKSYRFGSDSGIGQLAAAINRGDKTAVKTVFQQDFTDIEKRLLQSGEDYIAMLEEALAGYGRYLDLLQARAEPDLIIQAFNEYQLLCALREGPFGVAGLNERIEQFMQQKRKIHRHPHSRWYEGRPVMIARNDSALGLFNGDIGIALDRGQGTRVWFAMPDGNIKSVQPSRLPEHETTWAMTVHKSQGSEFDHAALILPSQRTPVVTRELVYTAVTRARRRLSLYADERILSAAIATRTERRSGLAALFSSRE
T1 sequence (P07648 whole entry): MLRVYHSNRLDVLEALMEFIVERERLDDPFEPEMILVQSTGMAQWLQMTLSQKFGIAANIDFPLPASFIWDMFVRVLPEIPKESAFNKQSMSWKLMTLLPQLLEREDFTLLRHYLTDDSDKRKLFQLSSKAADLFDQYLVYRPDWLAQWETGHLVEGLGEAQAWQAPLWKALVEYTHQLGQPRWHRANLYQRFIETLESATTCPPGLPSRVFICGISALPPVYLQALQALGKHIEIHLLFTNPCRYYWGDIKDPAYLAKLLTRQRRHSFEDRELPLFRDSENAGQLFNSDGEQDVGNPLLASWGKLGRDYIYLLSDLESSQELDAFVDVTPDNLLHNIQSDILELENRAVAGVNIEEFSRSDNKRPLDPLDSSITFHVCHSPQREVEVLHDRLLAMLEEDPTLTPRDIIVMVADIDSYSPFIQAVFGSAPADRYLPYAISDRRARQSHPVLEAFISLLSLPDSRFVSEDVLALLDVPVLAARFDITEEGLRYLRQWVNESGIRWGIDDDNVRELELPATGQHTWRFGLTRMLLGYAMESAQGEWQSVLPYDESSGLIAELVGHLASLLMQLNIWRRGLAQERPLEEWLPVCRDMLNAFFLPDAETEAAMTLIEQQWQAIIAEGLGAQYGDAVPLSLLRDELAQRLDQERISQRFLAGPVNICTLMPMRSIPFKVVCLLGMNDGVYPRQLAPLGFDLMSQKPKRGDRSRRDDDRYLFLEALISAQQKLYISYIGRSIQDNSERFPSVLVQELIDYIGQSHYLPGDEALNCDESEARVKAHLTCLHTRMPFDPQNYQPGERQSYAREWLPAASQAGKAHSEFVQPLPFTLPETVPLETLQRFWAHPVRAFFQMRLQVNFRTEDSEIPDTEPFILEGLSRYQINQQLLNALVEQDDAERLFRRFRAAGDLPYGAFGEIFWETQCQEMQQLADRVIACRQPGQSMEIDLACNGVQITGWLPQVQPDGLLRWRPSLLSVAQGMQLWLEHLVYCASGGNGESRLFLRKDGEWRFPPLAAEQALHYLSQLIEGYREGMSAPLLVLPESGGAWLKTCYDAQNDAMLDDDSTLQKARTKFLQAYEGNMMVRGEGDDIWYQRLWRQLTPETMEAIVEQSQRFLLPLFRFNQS
T1 sequence (P08394 whole entry): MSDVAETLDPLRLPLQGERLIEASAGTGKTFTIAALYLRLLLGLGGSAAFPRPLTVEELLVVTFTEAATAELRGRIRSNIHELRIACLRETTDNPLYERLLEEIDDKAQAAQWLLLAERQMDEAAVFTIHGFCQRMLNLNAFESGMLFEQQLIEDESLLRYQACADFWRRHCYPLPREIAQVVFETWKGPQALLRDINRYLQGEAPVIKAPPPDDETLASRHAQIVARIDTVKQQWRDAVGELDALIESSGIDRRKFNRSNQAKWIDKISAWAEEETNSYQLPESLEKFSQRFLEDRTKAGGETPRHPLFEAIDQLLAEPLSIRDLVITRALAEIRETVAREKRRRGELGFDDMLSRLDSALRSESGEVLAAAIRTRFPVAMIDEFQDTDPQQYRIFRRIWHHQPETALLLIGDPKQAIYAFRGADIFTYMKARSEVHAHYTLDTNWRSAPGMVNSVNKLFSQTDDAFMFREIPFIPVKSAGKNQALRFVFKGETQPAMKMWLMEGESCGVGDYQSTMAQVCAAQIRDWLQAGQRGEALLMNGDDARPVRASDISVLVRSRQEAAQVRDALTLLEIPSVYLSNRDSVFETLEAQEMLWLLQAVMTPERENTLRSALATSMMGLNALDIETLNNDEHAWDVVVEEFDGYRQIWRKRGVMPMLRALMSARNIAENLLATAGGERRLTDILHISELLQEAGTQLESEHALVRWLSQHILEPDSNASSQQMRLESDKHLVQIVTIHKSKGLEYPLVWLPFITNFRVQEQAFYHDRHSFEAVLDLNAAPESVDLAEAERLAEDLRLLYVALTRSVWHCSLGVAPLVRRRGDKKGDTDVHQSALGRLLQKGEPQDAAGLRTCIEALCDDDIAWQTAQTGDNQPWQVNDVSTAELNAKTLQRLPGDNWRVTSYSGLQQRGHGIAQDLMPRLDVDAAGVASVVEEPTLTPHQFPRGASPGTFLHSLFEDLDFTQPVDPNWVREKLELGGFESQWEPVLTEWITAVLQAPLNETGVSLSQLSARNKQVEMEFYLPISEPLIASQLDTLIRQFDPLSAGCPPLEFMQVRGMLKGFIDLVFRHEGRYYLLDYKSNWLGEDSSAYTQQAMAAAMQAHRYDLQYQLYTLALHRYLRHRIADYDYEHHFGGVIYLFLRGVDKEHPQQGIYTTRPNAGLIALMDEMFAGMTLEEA

[8] = luciferase reporter signal suppression in cells – H4 neuroglioma cells, luminescence, dose response (AID 1990); type: functional, cell-based
[9] = non-specific 3'UTR reporter inhibition in Clone20-Shn3RL – cell-based, Renilla luciferase, cherry-picked, counter-screen for Shn3 inhibitor project, dose response (AID 624133); type: functional
[10] = Shn3 3'UTR reporter signal decrease – cell-based, Clone20 osteoblasts, firefly luciferase, cherry-pick, set 2, Schnurri-3 inhibitor project, dose response (AID 720490); type: functional;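 further: actives lower the luminescence signal as inhibitors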
[11] = reduction of Shn3 3'UTR-driven luciferase in osteoblasts – cell-based, Clone20 osteoblasts, firefly luciferase, cherry-picked, dose response (AID 624132); type: functional;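 further: firefly luciferase luminescence from reporter carrying the Shn3 3'UTR in osteoblasts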
[12] = loss of viability in HepG2 cells – cell-based, CellTiter-Glo, cherry-picked, cytotoxicity control for Shn3 inhibitor project, dose response (AID 624134); type: functional
[13] = EF1alpha-driven Renilla reporter with control 3'UTR suppression – Clone20-Shn3RL cells, dual-Glo, cherry-pick, set 2, counter-screen for Shn3 3'UTR targeting project, dose response (AID 720724); type: functional, cell-based; details: Dual-Go Shn3RL
Protein Wnt-3a = Protein Wnt-3a (Mus musculus, UniProt P27467); assay: antagonism of Wnt3a pathway luciferase reporter – Wnt-LIGHT cells, luminescence, selectivity assay for Gli-SUFU antagonist project, dose response (AID 651570); type: functional; details: read-out: IC50_Mean;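 further: Wnt-LIGHT reporter cells stimulated with conditioned medium from Wnt3a-producing cells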
[14] = MITF: Counter assay: A375 proliferation Measured in Cell-Based System Using Plate Reader - 2084-03_Inhibitor_Dose_DryPowder_Activity_Set8.; type: functional; details: A-375
[15] = MITF Orthogonal Assay: SK-MEL-5 CTG Assay Measured in Cell-Based System Using Plate Reader - 2084-02_Inhibitor_Dose_DryPowder_Activity_Set7.; type: functional

Sequence of Protein Wnt-3a (P27467 whole entry): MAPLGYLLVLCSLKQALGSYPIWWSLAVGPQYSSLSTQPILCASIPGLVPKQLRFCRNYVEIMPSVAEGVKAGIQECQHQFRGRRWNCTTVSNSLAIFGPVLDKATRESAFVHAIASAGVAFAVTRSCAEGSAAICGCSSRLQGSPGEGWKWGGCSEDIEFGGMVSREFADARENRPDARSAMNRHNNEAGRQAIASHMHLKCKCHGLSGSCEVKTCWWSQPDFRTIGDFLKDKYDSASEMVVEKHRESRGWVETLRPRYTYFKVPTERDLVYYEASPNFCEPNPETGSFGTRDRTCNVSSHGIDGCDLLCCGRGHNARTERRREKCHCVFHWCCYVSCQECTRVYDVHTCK

Cc1onc(-c2c(Cl)cccc2Cl)c1C(=O)NN=C(N)COc1ccc(Cl)cc1
> 120 µM (not active): EC50 [3] | EC50 [8]
active: AC50 (INS1) 3.71 µM | EC50 [2] 3.09 µM | AC50 [4] 3.07 µM | EC50 [7] 12 µM
inactive: EC50 [1] > 150 µM | IC50 [5] > 122 µM | IC50 [6] > 119 µM | IC50 (Exodeoxyribonuclease V) > 119 µM

CC(Sc1nc2ccccc2c(=O)n1C)C(=O)N(C)C1CCCCC1 (stereo not drawn)
active: AC50 [9] 13.7 µM | AC50 [10] 2.03 µM | AC50 [11] 2.27 µM | AC50 [12] 38.2 µM | AC50 [13] 49.9 µM | IC50 (Protein Wnt-3a) 1.92 µM

Cc1ccc(NC2=CC(=O)c3ccccc3C2=O)cc1C
active: AC50 [15] 904 nM
inactive: AC50 [14] > 70 µM
